From patent US9580430B2, “9H-pyrimido[4,5-B]indoles and related analogs as BET bromodomain inhibitors” (THE REGENTS OF THE UNIVERSITY OF MICHIGAN, priority 2014, dated 2017)

Experiments:
MOLM-13 = experiment: Cell growth inhibition, MOLM-13 leukemia cells (CellTiter-Glo); format: cell-based; conditions: Homo sapiens, MOLM-13, 96 h; 4 days; read-out: IC50 (nM) MOLM-13 Cell Line (CellTiter-Glo assay)
Description: Cell growth inhibitory activity of representative Compounds of the Disclosure was determined using CellTiter-Glo® Luminescent Cell Viability Assay. […] Cell viability was determined using the CellTiter-Glo® Luminescent Cell Viability Assay Kit (Promega, Madison, Wis.) according to the manufacture's instruction. Briefly, a volume of CellTiter-Glo® Reagent equal to the volume of cell culture medium was added to each well, and then the plates were incubated at room temperature for 10-20 minutes. The luminescent signal was measured using a Tecan Infinite M1000 multimode microplate reader (Tecan, Morrisville, N.C.). The half maximal inhibitory concentration (IC50) was calculated using the GraphPad Prism 5 software (GraphPad Software, La Jolla, Calif.).

recombinant BRD4 BD2 = molecular target: T1, recombinant BRD4 BD2 (Homo sapiens, UniProt O60885); experiment: Competitive fluorescence-polarization (FP) binding assay, BRD4 BD2; conditions: competitive FP assay; protein 6 nM, probe […]; read-out: IC50 (nM) BRD4 BD2; also: probe 1.5 nM
T1 construct: for recombinant BRD4 BD1 and BRD4 BD2 proteins
Summary of the method: (§1)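 FP competition with FAM-labelled probe (ZBA248 or BRD-1F) against preincubated protein/probe complex; BD1 at 10 nM and BD2 at 6 nM final, in 100 mM potassium phosphate pH 6.5, 0.01% Triton X-100. 30 min, room temperature. IC50 by nonlinear regression; Ki also derived, using probe Kd from protein saturation.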

recombinant BRD4 BD1 = molecular target: T2, recombinant BRD4 BD1 (Homo sapiens, UniProt O60885); experiment: Competitive fluorescence-polarization (FP) binding assay, BRD4 BD1; conditions: competitive FP assay; protein 10 nM, probe […]; read-out: IC50 (nM) BRD4 BD1; also: probe 1.5 nM
T2 construct: for recombinant BRD4 BD1 and BRD4 BD2 proteins
Summary of the method: as §1

MDA-MB-436 = experiment: Cell growth inhibition, MDA-MB-436 breast cancer cells (WST-8); format: cell-based; conditions: Homo sapiens, MDA-MB-436, 96 h; 4 days; read-out: IC50 (nM) MDA-MB-436 Cell Line (WST assay)
Summary of the method: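 IC50 was computed from WST-8-based cell counting in MDA-MB-436 cells, with absorbance read at 450 nm.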

| IC50 (MOLM-13) [nM] | IC50 (recombinant BRD4 BD2) [nM] | IC50 (recombinant BRD4 BD1) [nM] | IC50 (MDA-MB-436) [nM] | Compound |
| --- | --- | --- | --- | --- |
| 11.7 | 4.1 | 6.1 | 26 | COc1cc2c(cc1-c1c(C)noc1C)[nH]c1nc(C)nc(Nc3cc(C(C)C)nn3C)c12 [Cpd. No. 65, 7-(3,5-Dimethylisoxazol-4-yl)-N-(3-isopropyl-1-methyl-1H-pyrazol-5-yl)-6-methoxy-2-methyl-9H-pyrimido[4,5-b]indol-4-amine] |
| 117 | 23.7 | 29.4 | 156 | COc1cc2c(cc1-c1c(C)noc1C)[nH]c1nc(C)nc(Nc3c(C)cnn3C)c12 [Cpd. No. 76, N-(1,4-dimethyl-1H-pyrazol-5-yl)-7-(3,5-dimethylisoxazol-4-yl)-6-methoxy-2-methyl-9H-pyrimido[4,5-b]indol-4-amine] |
| 43 | 8 | 34 | 180 | COc1cc2c(cc1-c1c(C)noc1C)[nH]c1nc(C)nc(Nc3cccc(Cl)c3)c12 [Cpd. No. 97, N-(3-chlorophenyl)-7-(3,5-dimethylisoxazol-4-yl)-6-methoxy-2-methyl-9H-pyrimido[4,5-b]indol-4-amine] |
| 171 | 13 | 76 | 380 | COc1cc2c(cc1-c1c(C)noc1C)[nH]c1nc(C)nc(Nc3c(-c4ccccc4)noc3C)c12 [Cpd. No. 98, N-(7-(3,5-dimethylisoxazol-4-yl)-6-methoxy-2-methyl-9H-pyrimido[4,5-b]indol-4-yl)-5-methyl-3-phenylisoxazol-4-amine] |
| 206 | 87 | 47 | 307 | COc1cc2c(cc1-c1c(C)noc1C)[nH]c1nc(C)nc(Nc3cnc4ccccn34)c12 [Cpd. No. 99, 7-(3,5-dimethylisoxazol-4-yl)-N-(imidazo[1,2-a]pyridin-3-yl)-6-methoxy-2-methyl-9H-pyrimido[4,5-b]indol-4-amine] |
| 510 | 17 | 18 | 363 | COc1cc2c(cc1-c1c(C)noc1C)[nH]c1nc(C)nc(Nc3c[nH]c4ncccc34)c12 [Cpd. No. 102, 7-(3,5-dimethylisoxazol-4-yl)-6-methoxy-2-methyl-N-(1H-pyrrolo[2,3-b]pyridin-3-yl)-9H-pyrimido[4,5-b]indol-4-amine] |
| 39 | 38 | 29 | 120 | COc1cc2c(cc1-c1c(C)noc1C)[nH]c1nc(C)nc(Nc3csc4ncccc34)c12 [Cpd. No. 103, N-(7-(3,5-dimethylisoxazol-4-yl)-6-methoxy-2-methyl-9H-pyrimido[4,5-b]indol-4-yl)thieno[2,3-b]pyridin-3-amine] |
| 56 | 619 | 1410 | 618 | COc1cc2c(cc1-c1c(C)noc1C)[nH]c1nc(C)nc(Nc3cncc(Cl)c3)c12 [Cpd. No. 106, N-(5-chloropyridin-3-yl)-7-(3,5-dimethylisoxazol-4-yl)-6-methoxy-2-methyl-9H-pyrimido[4,5-b]indol-4-amine] |
| 19 | 21 | 58 | 181 | COc1cc2c(cc1-c1c(C)noc1C)[nH]c1nc(C)nc(Nc3cncc(C)c3)c12 [Cpd. No. 108, 7-(3,5-dimethylisoxazol-4-yl)-6-methoxy-2-methyl-N-(5-methylpyridin-3-yl)-9H-pyrimido[4,5-b]indol-4-amine] |
| 12 | 253 | 284 | 679 | COc1cc2c(cc1-c1c(C)noc1C)[nH]c1nc(C)nc(Nc3cnccc3C)c12 [Cpd. No. 109, 7-(3,5-dimethylisoxazol-4-yl)-6-methoxy-2-methyl-N-(4-methylpyridin-3-yl)-9H-pyrimido[4,5-b]indol-4-amine] |
| 16 | 33 | 73 | 354 | COc1cc2c(cc1-c1c(C)noc1C)[nH]c1nc(C)nc(Nc3cc(C)ccn3)c12 [Cpd. No. 110, 7-(3,5-dimethylisoxazol-4-yl)-6-methoxy-2-methyl-N-(4-methylpyridin-2-yl)-9H-pyrimido[4,5-b]indol-4-amine] |
| 7 | 218 | 312 | 1100 | COc1cc2c(cc1-c1c(C)noc1C)[nH]c1nc(C)nc(Nc3cccc(C)n3)c12 [Cpd. No. 111, 7-(3,5-dimethylisoxazol-4-yl)-6-methoxy-2-methyl-N-(6-methylpyridin-2-yl)-9H-pyrimido[4,5-b]indol-4-amine] |
| 15.4 | 9.6 | 14 | 26.3 | CCn1nc(C)cc1Nc1nc(C)nc2[nH]c3cc(-c4c(C)noc4C)c(OC)cc3c12 [Cpd. No. 116, 7-(3,5-Dimethylisoxazol-4-yl)-N-(1-ethyl-3-methyl-1H-pyrazol-5-yl)-6-methoxy-2-methyl-9H-pyrimido[4,5-b]indol-4-amine] |

Further lines, the molecule ahead of its results:

| Compound | IC50 (MOLM-13) [nM] | IC50 (recombinant BRD4 BD2) [nM] | IC50 (recombinant BRD4 BD1) [nM] | IC50 (MDA-MB-436) [nM] |
| --- | --- | --- | --- | --- |
| COc1cc2c(cc1-c1c(C)noc1C)[nH]c1nc(C)nc(Nc3nn(C)cc3C)c12 [Cpd. No. 77, N-(1,4-dimethyl-1H-pyrazol-3-yl)-7-(3,5-dimethylisoxazol-4-yl)-6-methoxy-2-methyl-9H-pyrimido[4,5-b]indol-4-amine] | 242 | 168 | 64.4 | 351 |
| COc1cc2c(cc1-c1c(C)noc1C)[nH]c1nc(C)nc(Nc3c(C(C)C)cnn3C)c12 [Cpd. No. 79, 7-(3,5-dimethylisoxazol-4-yl)-N-(4-isopropyl-1-methyl-1H-pyrazol-5-yl)-6-methoxy-2-methyl-9H-pyrimido[4,5-b]indol-4-amine] | 43.9 | 1.8 | 9.3 | 121 |
| COc1cc2c(cc1-c1c(C)noc1C)[nH]c1nc(C)nc(Nc3c(C)c(C)nn3C(C)C)c12 [Cpd. No. 81, 7-(3,5-dimethylisoxazol-4-yl)-N-(1-isopropyl-3,4-dimethyl-1H-pyrazol-5-yl)-6-methoxy-2-methyl-9H-pyrimido[4,5-b]indol-4-amine] | 22.9 | 19.6 | 5.1 | 67 |
| COc1cc2c(cc1-c1c(C)noc1C)[nH]c1nc(C)nc(Nc3ccc(OC)c4ccccc34)c12 [Cpd. No. 100, 7-(3,5-dimethylisoxazol-4-yl)-6-methoxy-N-(4-methoxynaphthalen-1-yl)-2-methyl-9H-pyrimido[4,5-b]indol-4-amine] | 147 | 89 | 99 | 235 |
| COc1cc2c(cc1-c1c(C)noc1C)[nH]c1nc(C)nc(Oc3ccnc4ccccc34)c12 [Cpd. No. 104, 4-(6-methoxy-2-methyl-4-(quinolin-4-yloxy)-9H-pyrimido[4,5-b]indol-7-yl)-3,5-dimethylisoxazole] | 603 | 810 | > 1000 | 3.4 |
| COc1cc2c(cc1-c1c(C)noc1C)[nH]c1nc(C)nc(Oc3cncc(Br)c3)c12 [Cpd. No. 105, 4-(4-(5-bromopyridin-3-yloxy)-6-methoxy-2-methyl-9H-pyrimido[4,5-b]indol-7-yl)-3,5-dimethylisoxazole] | 371 | 868 | > 1000 | 885 |
| COc1cc2c(cc1-c1c(C)noc1C)[nH]c1nc(C)nc(Nc3ccc(F)c(Cl)c3)c12 [Cpd. No. 107, N-(3-chloro-4-fluorophenyl)-7-(3,5-dimethylisoxazol-4-yl)-6-methoxy-2-methyl-9H-pyrimido[4,5-b]indol-4-amine] | 8 | 33 | 92 | 229 |
| COc1cc2c(cc1-c1c(C)noc1C)[nH]c1nc(C)nc(NC3CCCCC3)c12 [Cpd. No. 112, N-cyclohexyl-7-(3,5-dimethylisoxazol-4-yl)-6-methoxy-2-methyl-9H-pyrimido[4,5-b]indol-4-amine] | 15000 | 395 | 460 | 2430 |
| COc1cc2c(cc1-c1c(C)noc1C)[nH]c1nc(C)nc(NC3CCCC3)c12 [Cpd. No. 113, N-cyclopentyl-7-(3,5-dimethylisoxazol-4-yl)-6-methoxy-2-methyl-9H-pyrimido[4,5-b]indol-4-amine] | 853 | 564 | 582 | 1100 |
| COc1cc2c(cc1-c1c(C)noc1C)[nH]c1nc(C)nc(Nc3cc(C)n(C)n3)c12 [Cpd. No. 115, N-(1,5-Dimethyl-1H-pyrazol-3-yl)-7-(3,5-dimethylisoxazol-4-yl)-6-methoxy-2-methyl-9H-pyrimido[4,5-b]indol-4-amine] | 30.7 | 136 | 23.2 | 81.1 |
